The record followed here is ChEMBL document CHEMBL1201862, “PubChem BioAssay data set” (2004).

Calls of active or inactive are those of the source.

In general, AC50 refers to the concentration giving half of the maximal activity seen. One may read the CC50 as the concentration at which the toxic effect on the cells reaches its halfway point.

One assay has as its target T1, CAAX prenyl protease 2 (Saccharomyces cerevisiae S288c, UniProt Q03530).
T1 sequence (Q03530 whole entry): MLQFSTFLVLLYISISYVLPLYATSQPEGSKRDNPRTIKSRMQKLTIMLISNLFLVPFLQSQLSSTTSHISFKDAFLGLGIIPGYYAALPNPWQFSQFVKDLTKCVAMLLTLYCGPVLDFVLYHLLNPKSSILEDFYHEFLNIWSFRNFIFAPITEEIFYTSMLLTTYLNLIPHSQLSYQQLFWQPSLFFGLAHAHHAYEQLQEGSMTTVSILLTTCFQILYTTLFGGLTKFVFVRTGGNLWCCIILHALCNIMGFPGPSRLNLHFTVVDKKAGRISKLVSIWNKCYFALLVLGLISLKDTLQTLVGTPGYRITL
It counts as biochemical.

For assay [1], the target named is DNA dC->dU-editing enzyme APOBEC-3A (Homo sapiens, UniProt P31941). Description: APOBEC3A DNA deaminase inhibitors, dose response, biochemical (AID 504722). It counts as functional.
Chain of DNA dC->dU-editing enzyme APOBEC-3A (P31941 whole entry): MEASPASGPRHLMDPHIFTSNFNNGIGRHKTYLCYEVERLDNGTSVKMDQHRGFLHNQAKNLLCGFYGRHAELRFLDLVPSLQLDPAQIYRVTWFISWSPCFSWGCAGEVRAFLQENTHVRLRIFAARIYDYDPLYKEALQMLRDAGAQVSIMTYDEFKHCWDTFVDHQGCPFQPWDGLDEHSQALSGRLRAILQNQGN
The target of assay [2] is DNA dC->dU-editing enzyme APOBEC-3G (Homo sapiens, UniProt Q9HC16). In words: Dose Response confirmation of small molecule APOBEC3G DNA Deaminase Inhibitors via a fluorescence-based single-stranded DNA deaminase assay. [Related pubchem assays (depositor defined):AID493012, AID493028]. Format: functional.
Chain of DNA dC->dU-editing enzyme APOBEC-3G (Q9HC16 whole entry): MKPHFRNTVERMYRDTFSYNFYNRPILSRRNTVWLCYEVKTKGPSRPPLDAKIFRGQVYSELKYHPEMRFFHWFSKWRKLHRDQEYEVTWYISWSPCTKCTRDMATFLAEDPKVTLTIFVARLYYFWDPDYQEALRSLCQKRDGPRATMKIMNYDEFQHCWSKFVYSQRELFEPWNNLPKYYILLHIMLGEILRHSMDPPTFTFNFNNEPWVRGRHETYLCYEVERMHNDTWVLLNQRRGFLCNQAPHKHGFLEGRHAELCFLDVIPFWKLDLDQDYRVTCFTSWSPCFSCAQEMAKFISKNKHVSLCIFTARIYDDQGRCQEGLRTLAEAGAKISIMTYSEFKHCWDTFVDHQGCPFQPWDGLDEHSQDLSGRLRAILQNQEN
The target in assay [3] is T2, Rac GTPase-activating protein 1 (Homo sapiens, UniProt Q9H0H5).
T2 sequence (Q9H0H5 whole entry): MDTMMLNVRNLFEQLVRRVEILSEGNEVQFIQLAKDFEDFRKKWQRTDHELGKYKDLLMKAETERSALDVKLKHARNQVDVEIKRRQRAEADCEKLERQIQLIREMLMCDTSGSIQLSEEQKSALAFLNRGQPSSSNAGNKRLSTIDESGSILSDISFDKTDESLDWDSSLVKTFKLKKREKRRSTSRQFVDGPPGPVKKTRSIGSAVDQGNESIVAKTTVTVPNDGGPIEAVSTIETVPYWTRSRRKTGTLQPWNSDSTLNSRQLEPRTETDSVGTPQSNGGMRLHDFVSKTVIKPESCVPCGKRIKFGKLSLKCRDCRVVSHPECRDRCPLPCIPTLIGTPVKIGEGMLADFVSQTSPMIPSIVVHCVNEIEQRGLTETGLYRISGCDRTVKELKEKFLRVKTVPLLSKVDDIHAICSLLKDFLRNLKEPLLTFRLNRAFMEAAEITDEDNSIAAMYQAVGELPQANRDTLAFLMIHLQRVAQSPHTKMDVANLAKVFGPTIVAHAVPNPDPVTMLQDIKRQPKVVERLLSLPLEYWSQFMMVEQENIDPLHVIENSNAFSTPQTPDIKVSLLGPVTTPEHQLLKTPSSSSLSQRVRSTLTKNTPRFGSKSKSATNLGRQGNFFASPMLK
In words: MgcRacGAP GTPase-activating activity inhibitors, confirmation, biochemical, ADP Hunter fluorescence, primary and confirmatory (AID 624330). It counts as functional.

Assay [4] in a line: inhibitors of intracellular T. cruzi replication, confirmation, NIH3T3 host cells, beta-gal luminescence (AID 2044).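 Note: intracellular parasites grown in NIH/3T3 mouse fibroblasts as host cells; luminescent beta-galactosidase reporter signal from transgenic T. cruzi replicating inside host cells; inhibitors lower the luminescence signal.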 It counts as functional, cell-based.
The nature of assay [5]: cytotoxicity toward NIH3T3 fibroblasts, dose response, counter-screen, cell-based, ATP luminescence, mouse fibroblasts (AID 2010).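 Note: cells exposed to compound for about 90 hours before reading.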 Format: functional. In general terms: The purpose of a counterscreen is to sort out artefacts and off-target activity.
Assay [6] addresses T3, Corticotropin-releasing factor receptor 2/Corticotropin-releasing factor-binding protein (Homo sapiens, UniProt P24387+Q13324).
T3 sequence (Q13324 whole entry): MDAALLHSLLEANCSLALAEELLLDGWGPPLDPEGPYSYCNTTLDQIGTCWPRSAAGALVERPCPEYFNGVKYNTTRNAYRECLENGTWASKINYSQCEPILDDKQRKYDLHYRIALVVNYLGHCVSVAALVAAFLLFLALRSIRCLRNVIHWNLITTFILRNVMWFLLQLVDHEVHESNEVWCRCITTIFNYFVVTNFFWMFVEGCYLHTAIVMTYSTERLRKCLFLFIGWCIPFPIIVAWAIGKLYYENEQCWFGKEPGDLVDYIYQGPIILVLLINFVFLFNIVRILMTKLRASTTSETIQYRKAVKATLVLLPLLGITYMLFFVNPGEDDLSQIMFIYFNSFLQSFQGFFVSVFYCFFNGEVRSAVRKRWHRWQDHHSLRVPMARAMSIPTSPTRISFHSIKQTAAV
T3 sequence (P24387 whole entry): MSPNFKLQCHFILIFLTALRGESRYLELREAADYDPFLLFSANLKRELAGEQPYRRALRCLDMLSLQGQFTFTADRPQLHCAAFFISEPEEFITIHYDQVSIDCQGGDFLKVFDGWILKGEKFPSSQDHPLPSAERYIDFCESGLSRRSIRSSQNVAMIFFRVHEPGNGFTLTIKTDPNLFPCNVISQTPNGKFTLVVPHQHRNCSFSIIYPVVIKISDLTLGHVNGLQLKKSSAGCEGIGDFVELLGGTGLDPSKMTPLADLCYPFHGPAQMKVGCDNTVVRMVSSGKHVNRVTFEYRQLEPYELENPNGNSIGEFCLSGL
In words: Dose Response confirmation of uHTS hits for small molecule antagonists of the CRF-binding protein and CRF-R2 receptor complex. Format: functional. The settings on record: read-out: IC50_Mean.

Assay [7] addresses T3, Corticotropin-releasing factor receptor 2/Corticotropin-releasing factor-binding protein. Description: activators of CRF receptor 2 with binding protein – uHTS hits, confirmation (AID 602473). It counts as functional. The conditions noted are these: read-out: EC50_Mean.
Assay [8] can be described thus: cells.
Assay [9] is described as follows: THP-1 cell cytotoxicity, dose response, cytotoxicity control for non-replicating M. tuberculosis project (AID 489025). It counts as functional.
Assay [10] can be described thus: HepG2 cell cytotoxicity, dose response, cytotoxicity control for non-replicating M. tuberculosis project (AID 489018). It counts as functional. The conditions noted are these: Mycobacterium tuberculosis.
Assay [11] can be described thus: Vero E6 cell cytotoxicity, dose response, cytotoxicity control for non-replicating M. tuberculosis project, secondary assay (AID 492998). It counts as functional, VeroE6. The settings on record: Vero C1008.
A short description of assay [12]: cells. It counts as functional.
The nature of assay [13]: HEp-2 cell cytotoxicity, dose response, cytotoxicity control for RSV inhibitor project, HTS (AID 2410). It counts as functional. The conditions noted are these: human respiratory syncytial virus.
A short description of assay [14]: cells. This is another data set of the same source.
Assay [15] has as its target T4, Heat shock factor protein 1 (Mus musculus, UniProt P38532).
T4 sequence (P38532 whole entry): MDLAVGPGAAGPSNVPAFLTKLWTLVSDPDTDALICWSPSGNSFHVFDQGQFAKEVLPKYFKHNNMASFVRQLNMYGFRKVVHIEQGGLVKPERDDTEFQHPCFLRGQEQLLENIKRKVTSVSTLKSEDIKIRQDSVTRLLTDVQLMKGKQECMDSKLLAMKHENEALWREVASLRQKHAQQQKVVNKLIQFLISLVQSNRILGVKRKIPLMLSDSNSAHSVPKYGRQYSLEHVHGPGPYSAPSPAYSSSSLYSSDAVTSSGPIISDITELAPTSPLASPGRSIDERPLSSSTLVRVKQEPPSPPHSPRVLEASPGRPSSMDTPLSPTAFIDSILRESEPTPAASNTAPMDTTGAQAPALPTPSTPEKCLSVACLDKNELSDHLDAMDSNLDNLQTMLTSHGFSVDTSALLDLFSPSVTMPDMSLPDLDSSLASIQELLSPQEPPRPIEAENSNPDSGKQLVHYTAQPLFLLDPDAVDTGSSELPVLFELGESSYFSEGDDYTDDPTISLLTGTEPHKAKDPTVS
Description: HSF1 potentiators in luciferase reporter cells, confirmation, cell-based, NIH3T3, luminescence, dose retest (AID 435004).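 Note: stress induced by proteasome inhibitor MG132 added 30 min after compound; luciferase reporter driven by HSF1 response element in NIH3T3 cells; actives raise luminescence as potentiators of the MG132 stress response.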 It counts as functional.

Assay [16] deals with Vero. Description: cells. Format: functional, cell-based. The settings on record: Chlorocebus sabaeus.
Assay [17] has as its target Eukaryotic translation initiation factor 4E (Mus musculus, UniProt P63073). In words: eIF4E–eIF4G protein interaction inhibitors, dose response, biochemical, TR-FRET (AID 855).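 Note: potency for disrupting eIF4E binding to eIF4GI seen as loss of FRET.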 Format: functional. Background: TR-FRET usually uses a lanthanide donor and a delayed reading to cut background.
Assay [18] deals with Vero. In words: cells. It counts as functional. The settings on record: Chlorocebus sabaeus.

Chain of Eukaryotic translation initiation factor 4E (P63073 whole entry): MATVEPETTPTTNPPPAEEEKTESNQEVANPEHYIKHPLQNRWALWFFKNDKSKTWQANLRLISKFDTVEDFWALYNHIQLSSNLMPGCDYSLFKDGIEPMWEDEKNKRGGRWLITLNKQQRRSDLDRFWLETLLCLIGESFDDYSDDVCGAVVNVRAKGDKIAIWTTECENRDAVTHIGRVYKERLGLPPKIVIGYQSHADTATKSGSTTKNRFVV

With `CCOC(=O)[C@@H]1[C@H]2COc3ccc(Br)cc3[C@@H]2N2C(=O)N(c3cccc(C)c3)C(=O)[C@]12C`, on CAAX prenyl protease 2, the AC50 was 4.52 µM (active).

Consider `Cc1cc(-c2nnc(S)n2/N=C/c2ccccc2[N+](=O)[O-])[nH]n1`, for which the IC50 in assay [1] is > 100 µM (inactive); in [2], 6.21 µM (active); in assay [3], 107 µM (active).

Regarding `O=C(CNc1ccccc1)N/N=C/c1ccc([N+](=O)[O-])o1`, the EC50 in assay [4] is < 0.1 µM (active); in [5] it was > 60 µM (not active); in [7] it was > 53 µM (inactive); in the assay “cells [8]”, 0.091 µM (active). For the same compound, the IC50 in assay [6] was > 47.1 µM (inactive).

As to `COc1ccccc1-c1nnc(NC(=O)c2ccc3ncsc3c2)o1`, the results for the CC50 in [9], in assay [10] and in assay [11] were > 40 µM (active), > 20 µM (active) and 10.3 µM (active), respectively. Further, the IC50 in the assay “cells [12]” is 7.75 µM (active).

With `CCOc1ccc(N2C(=O)C(CC(=O)Nc3ccccc3)N(Cc3ccccn3)C2=S)cc1` (stereo unspecified), in assay [13], the CC50 is 33.6 µM (active). Further, the IC50 in “cells [14]” is 5 µM (active).

On to `CCOC(=O)Nc1ccc2c(c1)N(C(=O)CCN1CCOCC1)c1ccccc1[S+]2[O-]` (stereo unspecified), for which the CC50 in [9] is 26.7 µM (active); in assay [11], > 20 µM (active). For the same compound, the EC50 in [15] was > 260 µM (inactive).

As for `CCCCN(C)Cc1c(C)nc2c(Cl)cccc2c1O`, the EC50 is < 0.1 µM (active) in assay [4], > 60 µM (not active) in assay [5] and 0.074 µM (active) in “cells [8]”.

As to `CCn1c(SC)nnc1-c1sc2cc(Cl)ccc2c1Cl`, in assay [13], the CC50 was 11.2 µM (active). For the same compound, the IC50 in “cells [14]” was 9.26 µM (active).

Take `COCCn1c(SC(C)C(=O)Nc2ncc(Cl)cc2Cl)nc2ccccc21` (stereo unspecified): the CC50 in [13] was 25.5 µM (active). Further, the IC50 was 8.99 µM (active) in the assay with Vero [16] and 14.8 µM (active) in “cells [14]”.

With `Cn1c(S)nnc1-c1csc(-c2ccccc2)n1`, the IC50 was > 100 µM (inactive) in assay [1] and 3.06 µM (active) in [2].

For `C=CCSc1nc(-c2ccc(OC)cc2)c(C#N)c(=O)n1CC=C`, the IC50 in [17] was 50 µM (inactive). Besides, the EC50 in assay [15] was 12.7 µM (active).

Consider `CC(C)(CO)CNC1CCCN(C2Cc3ccccc3C2)C1` (stereo unspecified), for which the EC50 in assay [4] was < 0.1 µM (active); in [5], 10.5 µM (active); in the assay “cells [8]”, 0.12 µM (active).

Regarding `Nn1c(Cc2cccc3ccccc23)n[nH]c1=S`, the IC50 is > 100 µM (inactive) in [1] and 2.94 µM (active) in assay [2].

On to `S=C(NCCc1ccccc1)N1CCn2cccc2C1c1cccnc1` (stereo unspecified), for which the EC50 is < 0.1 µM (active) in assay [4], > 60 µM (not active) in [5] and 0.112 µM (active) in the assay “cells [8]”.

In the case of `C/C(=N\NC(=O)COc1cccc(C)c1)c1ccc2ccccc2c1O`, the CC50 in assay [9] is 8.95 µM (active); in [10], 19.1 µM (active); in assay [11], 16.5 µM (active).

Take `COc1cc2c(cc1OC)CN(C(=O)c1cccc(S(=O)(=O)N3CCc4ccccc43)c1)CC2`: the CC50 in assay [13] was 18.7 µM (active); with Vero [18] it was > 25 µM (active). Besides, the IC50 in the assay on Vero [16] was 19.5 µM (active); in “cells [14]” it was 45.9 µM (active).

For the compound `CCOC(=O)Cc1csc(NC(=O)c2c(O)c3ccccc3n(CCC(C)C)c2=O)n1`, the CC50 in assay [9] is 15.2 µM (active); in [10], > 20 µM (active); in assay [11], 8.56 µM (active). In addition, the IC50 in the assay “cells [12]” is 2.08 µM (active).

Regarding `O=C(Nc1ccc(Cl)c([N+](=O)[O-])c1)C(Sc1ccccc1)c1ccccc1` (stereo unspecified), the results for the EC50 in assay [4] and in [5] were 1.45 µM (active) and > 60 µM (inconclusive), respectively. In addition, at CAAX prenyl protease 2, the AC50 was 7.77 µM (active).

Take `CCc1nnc(S)n1/N=C/c1ccc(N(CC)CC)cc1`: the IC50 is > 100 µM (inactive) in assay [1] and 6.69 µM (active) in assay [2].

Regarding `Cc1cc(C[n+]2cc(Cl)ccc2N)c2ncccc2c1`, in assay [13], the CC50 was > 50 µM (active). In “cells [14]”, the IC50 was 35.7 µM (active).
